Data taken from patent publication US4562151A, “Stabilization of L-phenylalanine ammonia-lyase enzyme” (Monsanto Company, priority 1983, dated 1985).

Tests used:
[1] = tested on: L-phenylalanine ammonia-lyase; test: Relative effect of polyhydric alcohols on PAL activity, 19 hour incubation (Table III); assay type: biochemical, R. glutinis; conditions: for Stabilizing effect on L-phenylalanine ammonia-lyase: monohydric and dihydric alcohols, concentration not given; for PAL Enzyme Activity: 240 mM cinnamate, 6.0 M ammonia, pH 11.5, 37° C., cells about 90 mg/ml, 19 hour incubation, control without alcohol 28
Procedure: The reaction mixture consisted of 6.0 M ammonia, 240 mM cinnamate, R. glutinis cells and the above described polyhydric alcohol at pH 11.5 and 37° C. The final concentration of R. glutinis cells was approximately 90 mg/ml (wet weight). L-phenylalanine formation was determinted by high pressure liquid chromatography following a 19 hour incubation period.

[2] = tested on: L-phenylalanine ammonia-lyase enzyme; test: 24 hour time course of L-phenylalanine formation with and without glycerol (Figure); assay type: biochemical, R. glutinis; conditions: 2.0 M glycerol, 200 mM cinnamate, 6.0 M ammonia, pH 11.5, 37° C., cells about 90 mg/ml
Procedure: Further experiments have shown that polyhydric alcohols, such as glycerol, have a substantial effect on the short-term activity of the L-phenylalanine ammonia-lyase enzyme in addition to a stabilizing effect on the long-term activity of the enzyme. The relative rates of L-phenylalanine formation from trans-cinnamate for a twenty-four hour period in the presence and absence of glycerol are plotted in the graph shown in the Figure. The reaction mixture consisted of 200 mM cinnamate, 6.0 M ammonia, 2.0 M glycerol and R. glutinis cells at pH 11.5 and 37° C. The final concentration of R. glutinis cells was approximately 90 mg/ml(wet weight). L-phenylalanine formation was determined by high pressure liquid chromatography. The amount of L-phenylalanine formed in twenty-four hours in the absence of glycerol was taken as 100.

[3] = tested on: L-phenylalanine ammonia-lyase enzyme; test: Effect of cinnamate concentration on PAL activity, R. glutinis cells, with or without glycerol (Table I); assay type: biochemical, Rhodotorula glutinis; conditions: for PAL Activity with glycerol: glycerol 2.3 M, ammonia 6.8 M, pH 11.2, 37° C., activity at 46.1 mM cinnamate taken as 100
From the text: For conciseness, the following explanation and examples of the present invention are described with respect to L-phenylalanine ammonia-lyase enzyme from Rhodotorula glutinis cells (ATCC 15385) known to catalyze the reversible reaction between trans-cinnamate and an ammonia donor to form L-phenylalanine. To facilitate transport of substrate and product across the cell membrane about 3 to 5 microliters of polyethyleneglycol-p-isooctylphenylether per gram wet weight of cells is preferably added to the microbial cell suspension. It should be understood that the addition of polyethylene glycol-p-isooctylphenylether or other detergents which increase the permeability of cell membranes is not necessary for practice of the present invention.
The effects of increasing cinnamate concentrations on the reactivity of L-phenylalanine ammonia-lyase enzyme with and without the addition of glycerol are shown in Table I.
^(1) glycerol concentration = 2.3 M, ammonia concentration = 6.8 M; p
of the reaction mixture = 11.2; temperature = 37° C.; concentratio
of R. glutinis cells = 90 mg/ml. Enzyme activity at 46.1 mM cinnamate was
^(2) ammonia concentration = 6.8 M; pH of the reaction mixture = 11.2
temperature = 37° C.; concentration of R. glutinis cells = 90
mg/ml. Enzyme activity at 60.0 mM cinnamate was taken as 100.

CCCCO [butanol]
Stabilizing effect on L-phenylalanine ammonia-lyase [1]: found not to generate the stabilizing effect

OCCO [ethylene glycol]
Stabilizing effect on L-phenylalanine ammonia-lyase [1]: found not to generate the stabilizing effect

OCC(O)CO [glycerol]
Instantaneous rate of reaction (initial slope of curve) versus control without glycerol [2]: higher instantaneous rate of reaction
L-phenylalanine formed during the 12 to 24 hr period (long term stabilizing effect) ([2]; without glycerol enzyme essentially inactivated after 12 hours): substantial amount of L-phenylalanine formed during the 12 to 24 hr period
PAL Enzyme Activity ([1]; alcohol 0.72 M): 100
PAL Activity with glycerol ([3]; 46.1 mM cinnamate, R. glutinis cells 90 mg/ml): 100
PAL Activity with glycerol ([3]; 140.0 mM cinnamate, cells 90 mg/ml): 100
PAL Activity with glycerol ([3]; 185.0 mM cinnamate, cells 90 mg/ml): 75
PAL Activity with glycerol ([3]; 250.0 mM cinnamate, cells 90 mg/ml): 59
Activity of L-phenylalanine ammonia-lyase at 250 mM cinnamate relative to that measured at 50 mM ([3]; 250 mM versus 50 mM cinnamate, in presence of glycerol): about 60%

OC[C@@H](O)[C@@H](O)[C@H](O)[C@H](O)CO [D-mannitol]
PAL Enzyme Activity ([1]; alcohol 0.43 M): 29

CO [methanol]
Stabilizing effect on L-phenylalanine ammonia-lyase [1]: found not to generate the stabilizing effect

OC[C@@H](O)[C@@H](O)[C@H](O)[C@@H](O)CO [D-sorbitol]
PAL Enzyme Activity ([1]; alcohol 0.43 M): 74

CCO [ethanol]
Stabilizing effect on L-phenylalanine ammonia-lyase [1]: found not to generate the stabilizing effect
